For 12 molecules, Transparency of composition results are on record in US10660836B2, “Hydroxy functionalized solvent based skin benefit composition” (Conopco, Inc., priority 2015, dated 2020).

The series can be described thus: Transparency (no crystallization or gelation) of 12-hydroxystearic acid compositions after manufacturing, visual inspection. The conditions noted are these: SBA = 12-hydroxystearic acid. The class given is physicochemical. More on the design: key: C: a substantially transparent or transparent composition for at least three (3) months after manufacturing; X: an opaque (non-transparent, non-translucent) composition inconsistent with the claimed compositions of this invention and where benefit agent crystallization or composition gelation is almost immediately observed. The text has this: Cosmetic composition is meant to mean a leave-on or wash-off composition, preferably leave-on, for topical application to mammals, especially humans. Such a composition can include tonics, lotions, personal washes, serums, spot correctors, compositions for facial masks or wipes, make-up removers, patches, scrubs or the like. Substantially transparent as used herein, means allowing light to pass but diffusing the light so that items on the opposite side of light entry are not clearly visible. Substantially transparent is synonymous with translucent. Transparent, as used herein, means capable of transmitting light where objects opposite the point of entry of light are seen clearly upon a visable inspection (i.e., 2.5 cm of sample placed 5 cm over an object and viewed from 25 cm away from viewer's eyes). Flowable, as used herein, means having a viscosity from 0 to 8,000 cps, and preferably, from 10 to 4,000 cps, and most preferably, from 500 to 2,000 cps, including all ranges subsumed therein (viscosity measured on a Brookfield Viscometer, 24° C., 20 RPM, Spindle RV2). Free of crystallization and gelation as used herein means remaining at least substantially transparent (preferably transparent) at ambient temperature for at least three (3) months. Use of substantially transparent, transparent and translucent herein is based on the mixture of hydroxy functionalized solvent (with or without miscible co-solvent) and 12-hydroxystearic acid. It is not to say the mixture cannot, for example, comprise an optional opacifier. Hydroxy group density (“HD”) means the molecular weight of total solvent hydroxy group/the molecular weight of the solvent where solvent hydroxy group can include the hydroxy group on a carboxylic acid group. Methanol, for example, has an HD of 0.53, 17 g/mol/32 g/mol. Regarding optional additives, they may be used according to their solubility where those that are not water soluble may be selected for use in the composition substantially free of water as described herein and those which are water soluble may be used in the aforementioned optional but separate and distinct phase. Miscible/Soluble, as used herein, means ability to mix/dissolve homogeneously at 70 to 85° C. and remain homogeneously dissolved or mixed upon cooling. Comprising, as used herein, is meant to include consisting essentially of and consisting of. For the avoidance of doubt, therefore, the composition of this invention may consist essentially of or consist of 12-hydroxystearic acid and hydroxy functionalized solvent. Anhydrous as used herein means a composition substantially free of water whereby the composition is less than 2% by weight water, and preferably, less than 1% by weight water based on total weight of the composition comprising 12-hydroxystearic acid and hydroxy functionalized solvent. Anhydrous also includes free of water (i.e., no water) within the composition comprising 12-hydroxystearic and hydroxy fuctionalized solvent. Double phase product includes a two (2) portion product that may be separately packaged or preferably a biphasic product (i.e., distinct immiscible portions). Skin benefit agent means an agent in addition to hydroxyl functionalized solvent and 12-hydroxystearic acid that provides benefit to skin. The skin benefit agent used in the anhydrous composition of the invention that comprises 12-hydroxystearic acid is preferably soluble or miscible in the same. To the extent optional water miscible/soluble actives or ingredients are used, they will preferably be provided, as later described, in a double phase product with the anhydrous composition of this invention, the double phase product having a distinct phase often being a water phase (including emulsions, solutions and dispersions), water containing concentrate or water soluble solid, particulate or powder. Water phase, as used herein, includes a composition having 2% or more water, and preferably, from 10% to 98% by weight water based on total weight of the water phase. […]

Take `CCOCCOCCO` [2-(2-Ethoxyethoxy)ethanol]: the Transparency of composition entry is listed as “C (a substantially transparent or transparent composition for at least three (3) months after manufacturing)” (1% SBA/99% Solvent); “C (a substantially transparent or transparent composition for at least three (3) months after manufacturing)” (3% SBA/97% Solvent); “C (a substantially transparent or transparent composition for at least three (3) months after manufacturing)” (5% SBA/95% Solvent); “X” (10% SBA/90% Solvent); “X” (15% SBA/85% Solvent); “X” (20% SBA/80% Solvent). The Transparency of composition result (25% SBA/75% Solvent) is “X”.
On to `OCc1ccccc1` [Benzyl Alcohol], for which the Transparency of composition entry is, setting by setting: (1% SBA/99% Solvent) “C (a substantially transparent or transparent composition for at least three (3) months after manufacturing)”; (3% SBA/97% Solvent) “C (a substantially transparent or transparent composition for at least three (3) months after manufacturing)”; (5% SBA/95% Solvent) “C (a substantially transparent or transparent composition for at least three (3) months after manufacturing)”; (10% SBA/90% Solvent) “X”; (15% SBA/85% Solvent) “X”; (20% SBA/80% Solvent) “X”. Besides, the Transparency of composition result (25% SBA/75% Solvent) was “X”.
Turning to `OCCCCO` [Butylene Glycol], the Transparency of composition entry runs as follows: (1% SBA/99% Solvent) “C (a substantially transparent or transparent composition for at least three (3) months after manufacturing)”; (3% SBA/97% Solvent) “X”; (5% SBA/95% Solvent) “X”; (10% SBA/90% Solvent) “X”; (15% SBA/85% Solvent) “X”; (20% SBA/80% Solvent) “X”. For the same molecule, the Transparency of composition entry (25% SBA/75% Solvent) is recorded as “X”.
In the case of `CCO` [Ethanol], the Transparency of composition entry was “C (a substantially transparent or transparent composition for at least three (3) months after manufacturing)” (1% SBA/99% Solvent); “C (a substantially transparent or transparent composition for at least three (3) months after manufacturing)” (3% SBA/97% Solvent); “C (a substantially transparent or transparent composition for at least three (3) months after manufacturing)” (5% SBA/95% Solvent); “C (a substantially transparent or transparent composition for at least three (3) months after manufacturing)” (10% SBA/90% Solvent); “C (a substantially transparent or transparent composition for at least three (3) months after manufacturing)” (15% SBA/85% Solvent); “X” (20% SBA/80% Solvent). For the same molecule, under “25% SBA/75% Solvent”, the Transparency of composition result is listed as “X”.
With `CC(C)CCCCCCCCCCCCCCC(=O)O` [Isostearic Acid], the Transparency of composition result is “C (a substantially transparent or transparent composition for at least three (3) months after manufacturing)” (1% SBA/99% Solvent); “C (a substantially transparent or transparent composition for at least three (3) months after manufacturing)” (3% SBA/97% Solvent); “X” (5% SBA/95% Solvent); “X” (10% SBA/90% Solvent); “X” (15% SBA/85% Solvent); “X” (20% SBA/80% Solvent). Also, for the setting “25% SBA/75% Solvent”, the Transparency of composition result is on record as “X”.
For the molecule `CC(C)CCCCCCCCCCCCCCCO` [Isostearyl Alcohol], the Transparency of composition entry (1% SBA/99% Solvent) is given as “C (a substantially transparent or transparent composition for at least three (3) months after manufacturing)”; the Transparency of composition entry (3% SBA/97% Solvent) is on record as “C (a substantially transparent or transparent composition for at least three (3) months after manufacturing)”; the Transparency of composition entry (5% SBA/95% Solvent) is reported as “X”; the Transparency of composition result (10% SBA/90% Solvent) was “X”; the Transparency of composition result (15% SBA/85% Solvent) was “X”; the Transparency of composition result (20% SBA/80% Solvent) was “X”. Also, the Transparency of composition entry (25% SBA/75% Solvent) is “X”.
For `CO` [Methanol], the Transparency of composition result (1% SBA/99% Solvent) is reported as “C (a substantially transparent or transparent composition for at least three (3) months after manufacturing)”; the Transparency of composition entry (3% SBA/97% Solvent) is recorded as “C (a substantially transparent or transparent composition for at least three (3) months after manufacturing)”; the Transparency of composition entry (5% SBA/95% Solvent) is “C (a substantially transparent or transparent composition for at least three (3) months after manufacturing)”; the Transparency of composition result (10% SBA/90% Solvent) was “C (a substantially transparent or transparent composition for at least three (3) months after manufacturing)”; the Transparency of composition entry (15% SBA/85% Solvent) is “C (a substantially transparent or transparent composition for at least three (3) months after manufacturing)”; the Transparency of composition entry (20% SBA/80% Solvent) is listed as “C (a substantially transparent or transparent composition for at least three (3) months after manufacturing)”. Moreover, the Transparency of composition result (25% SBA/75% Solvent) was “X”.
For `CCCCCCCCCCC(CO)CCCCCCCC` (stereo not drawn) [Octyldodecanol], the Transparency of composition result runs as follows: (1% SBA/99% Solvent) “C (a substantially transparent or transparent composition for at least three (3) months after manufacturing)”; (3% SBA/97% Solvent) “C (a substantially transparent or transparent composition for at least three (3) months after manufacturing)”; (5% SBA/95% Solvent) “X”; (10% SBA/90% Solvent) “X”; (15% SBA/85% Solvent) “X”; (20% SBA/80% Solvent) “X”. The Transparency of composition result (25% SBA/75% Solvent) is on record as “X”.
In the case of `OCCOc1ccccc1` [Pehnoxyethanol], the Transparency of composition entry was “C (a substantially transparent or transparent composition for at least three (3) months after manufacturing)” (1% SBA/99% Solvent); “C (a substantially transparent or transparent composition for at least three (3) months after manufacturing)” (3% SBA/97% Solvent); “C (a substantially transparent or transparent composition for at least three (3) months after manufacturing)” (5% SBA/95% Solvent); “X” (10% SBA/90% Solvent); “X” (15% SBA/85% Solvent); “X” (20% SBA/80% Solvent). Also, under “25% SBA/75% Solvent”, the Transparency of composition entry is recorded as “X”.
As for `CC(O)CO` (stereo not drawn) [Propylene Glycol], the Transparency of composition entry is recorded as “C (a substantially transparent or transparent composition for at least three (3) months after manufacturing)” (1% SBA/99% Solvent); “X” (3% SBA/97% Solvent); “X” (5% SBA/95% Solvent); “X” (10% SBA/90% Solvent); “X” (15% SBA/85% Solvent); “X” (20% SBA/80% Solvent). For the same molecule, for the setting “25% SBA/75% Solvent”, the Transparency of composition result is listed as “X”.
Take Conjugated Linoleic Acid: the Transparency of composition entry (1% SBA/99% Solvent) is “C (a substantially transparent or transparent composition for at least three (3) months after manufacturing)”; the Transparency of composition result (3% SBA/97% Solvent) is given as “C (a substantially transparent or transparent composition for at least three (3) months after manufacturing)”; the Transparency of composition result (5% SBA/95% Solvent) is recorded as “X”; the Transparency of composition result (10% SBA/90% Solvent) was “X”; the Transparency of composition result (15% SBA/85% Solvent) is recorded as “X”; the Transparency of composition result (20% SBA/80% Solvent) is reported as “X”. Under “25% SBA/75% Solvent”, the Transparency of composition result was “X”.
As for Ethylhexyl Hydroxystearate, the Transparency of composition result is “C (a substantially transparent or transparent composition for at least three (3) months after manufacturing)” (1% SBA/99% Solvent); “X” (3% SBA/97% Solvent); “X” (5% SBA/95% Solvent); “X” (10% SBA/90% Solvent); “X” (15% SBA/85% Solvent); “X” (20% SBA/80% Solvent). The Transparency of composition result (25% SBA/75% Solvent) is recorded as “X”.
